We go through 28 compounds from US20230167073A1 (Teijin Pharma Limited, priority 2020, published 2023).

The target of the assay is T1, Human TRPC6 (Homo sapiens, UniProt Q9Y210).
T1 construct: expressed in transfected cells
T1 sequence (Q9Y210 1-931): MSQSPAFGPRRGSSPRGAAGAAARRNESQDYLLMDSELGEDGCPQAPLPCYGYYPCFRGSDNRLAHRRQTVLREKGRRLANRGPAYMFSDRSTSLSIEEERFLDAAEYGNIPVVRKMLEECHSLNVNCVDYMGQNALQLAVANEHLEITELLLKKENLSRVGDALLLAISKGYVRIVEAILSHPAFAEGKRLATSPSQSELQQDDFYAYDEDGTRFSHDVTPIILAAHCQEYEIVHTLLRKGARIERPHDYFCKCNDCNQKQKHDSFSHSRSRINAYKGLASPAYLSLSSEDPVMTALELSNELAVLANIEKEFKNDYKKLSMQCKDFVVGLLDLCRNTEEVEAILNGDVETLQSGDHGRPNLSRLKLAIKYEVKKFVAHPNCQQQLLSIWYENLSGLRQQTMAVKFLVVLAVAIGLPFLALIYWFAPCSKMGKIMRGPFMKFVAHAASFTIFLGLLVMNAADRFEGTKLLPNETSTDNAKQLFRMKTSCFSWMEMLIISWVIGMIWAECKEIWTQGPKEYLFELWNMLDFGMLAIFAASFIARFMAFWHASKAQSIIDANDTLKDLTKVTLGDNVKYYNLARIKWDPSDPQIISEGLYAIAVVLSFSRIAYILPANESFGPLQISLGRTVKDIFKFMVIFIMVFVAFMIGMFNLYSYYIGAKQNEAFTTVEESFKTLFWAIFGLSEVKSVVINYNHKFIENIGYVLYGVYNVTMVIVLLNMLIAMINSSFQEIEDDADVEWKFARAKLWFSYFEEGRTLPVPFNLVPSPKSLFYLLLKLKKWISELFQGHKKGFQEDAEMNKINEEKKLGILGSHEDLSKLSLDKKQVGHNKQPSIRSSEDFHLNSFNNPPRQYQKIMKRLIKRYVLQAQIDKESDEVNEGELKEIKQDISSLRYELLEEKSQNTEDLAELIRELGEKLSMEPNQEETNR
Put plainly: Evaluation of TRPC6 channel inhibitory activity (1), FLIPR Calcium 5 Assay Kit, OAG stimulation (Compound Nos. 1-1293). It is filed as cell-based. The following applies: Human TRPC6 stably-expressing cells, OAG 30 μM, FLIPR Calcium 5 Assay Kit; read-out: Inhibitory activity (pIC50 class) (converted). Here is the method: Evaluation of TRPC6 Channel Inhibitory Activity (1) (Compound Nos. 1-1293)
In order to investigate TRPC6 channel inhibitory activity of the compounds, evaluation was conducted using FLIPR® Calcium 5 Assay Kit (Molecular Devices) in accordance with the following procedure. Human TRPC6 stably-expressing cells were seeded in a 384-well black clear bottom plate at a density of 5×10^3/well and cultured in an incubator at 37° C. 5% CO2 for 24 hours. Thereafter, 25 μL of a Non Wash Dye Solution, prepared using Component A, 20 mM HEPES-HBSS and 250 mM probenecid, all of which are included in the kit, was added to each well, and the plate was incubated for 30 minutes. A volume of 12.5 μL of a compound solution was added into each well while the fluorescence was measured with FLIPR tetra. After 20 minutes, 12.5 μL of a 1-oleoyl-2-acetyl glycerol (OAG) solution was added at a final concentration of 30 μM. The difference between the minimum fluorescence intensity before the addition of the compound and the maximum fluorescence intensity after the addition of OAG was defined as a signal. An inhibition rate was calculated, assuming the average signal of wells without the compound as the inhibition rate of 0% and the average signal of wells without the compound and OAG as the inhibition rate of 100%. The calculated inhibition rate was analyzed by a four-parameter logistic regression to quantify the inhibition rate in the logarithm of the inverse of the effective concentration which gives a 50% inhibition rate (pIC50). The intensity was expressed by the following symbols (+, ++, +++).

Some results are limits rather than exact numbers.

In the case of `Cc1nc(Oc2cc(C#N)ccc2-c2ccc(CCN)cc2)cc(N2CCCC2)n1` [Compound 25, 4-[4-(2-aminoethyl)phenyl]-3-(2-methyl-6-pyrrolidin-1-ylpyrimidin-4-yl)oxybenzonitrile], the IC50 was below 10 nM. The figure for `Cc1nc(Oc2cc(C#N)ccc2-c2ccc(CCN)cc2)cc(N2CC(F)(F)C(F)(F)C2)n1` [Compound 26, 4-[4-(2-aminoethyl)phenyl]-3-[2-methyl-6-(3,3,4,4-tetrafluoropyrrolidin-1-yl)pyrimidin-4-yl]oxybenzonitrile] is below 10 nM; for `Cc1nc(Oc2cc(C#N)ccc2-c2ccc(CCN)cc2)cc(N2CCCCCC2)n1` [Compound 27, 4-[4-(2-aminoethyl)phenyl]-3-[6-(azepan-1-yl)-2-methylpyrimidin-4-yl]oxybenzonitrile] it is 10 to 1000 nM; for `Cc1nc(Oc2cc(C#N)ccc2-c2ccc(CCN)cc2)cc(-c2cccn2C)n1` [Compound 28, 4-[4-(2-aminoethyl)phenyl]-3-[2-methyl-6-(1-methylpyrrol-2-yl)pyrimidin-4-yl]oxybenzonitrile] it is 10 to 1000 nM. To `Cc1nc(Oc2cc(C#N)ccc2-c2ccc(CCN)cc2)cc(-c2ccn(C)c2)n1` [Compound 29, 4-[4-(2-aminoethyl)phenyl]-3-[2-methyl-6-(1-methylpyrrol-3-yl)pyrimidin-4-yl]oxybenzonitrile] belongs 10 to 1000 nM; to `Cc1nc(Oc2cc(C#N)ccc2-c2ccc(CCN)cc2)cc(-c2cscn2)n1` [Compound 30, 4-[4-(2-aminoethyl)phenyl]-3-[2-methyl-6-(1,3-thiazol-4-yl)pyrimidin-4-yl]oxybenzonitrile], below 10 nM. As for `Cc1nc(Oc2cc(C#N)ccc2-c2ccc(CCN)cc2)cc(N2CCCOCC2)n1` [Compound 31, 4-[4-(2-aminoethyl)phenyl]-3-[2-methyl-6-(1,4-oxazepan-4-yl)pyrimidin-4-yl]oxybenzonitrile], the IC50 is 10 to 1000 nM.

With `Cc1nc(Oc2cc(C#N)ccc2-c2ccc(CCN)cc2)cc(-c2ccsc2)n1` [Compound 32, 4-[4-(2-aminoethyl)phenyl]-3-(2-methyl-6-thiophen-3-ylpyrimidin-4-yl)oxybenzonitrile], the IC50 is below 10 nM.

Regarding `Cc1nc(Oc2cc(C#N)ccc2-c2ccc(CCN)cc2)cc(-c2cccs2)n1` [Compound 33, 4-[4-(2-aminoethyl)phenyl]-3-(2-methyl-6-thiophen-2-ylpyrimidin-4-yl)oxybenzonitrile], the IC50 was below 10 nM. The figure for `Cc1nc(Oc2cc(C#N)ccc2-c2ccc(CCN)cc2)cc(-c2ncco2)n1` [Compound 34, 4-[4-(2-aminoethyl)phenyl]-3-[2-methyl-6-(1,3-oxazol-2-yl)pyrimidin-4-yl]oxybenzonitrile] is 10 to 1000 nM. To `Cc1nc(OCC(F)(F)F)cc(Oc2cc(C#N)ccc2-c2ccc(CCN)cc2)n1` [Compound 35, 4-[4-(2-aminoethyl)phenyl]-3-[2-methyl-6-(2,2,2-trifluoroethoxy)pyrimidin-4-yl]oxybenzonitrile] belongs 10 to 1000 nM; to `Cc1nc(OCCCF)cc(Oc2cc(C#N)ccc2-c2ccc(CCN)cc2)n1` [Compound 36, 4-[4-(2-aminoethyl)phenyl]-3-[6-(3-fluoropropoxy)-2-methylpyrimidin-4-yl]oxybenzonitrile], 10 to 1000 nM. To `Cc1nc(OCCC(F)(F)F)cc(Oc2cc(C#N)ccc2-c2ccc(CCN)cc2)n1` [Compound 37, 4-[4-(2-aminoethyl)phenyl]-3-[2-methyl-6-(3,3,3-trifluoropropoxy)pyrimidin-4-yl]oxybenzonitrile] belongs above 1000 nM. `CCCCOc1cc(Oc2cc(C#N)ccc2-c2ccc(CCN)cc2)nc(C)n1` [Compound 38, 4-[4-(2-aminoethyl)phenyl]-3-(6-butoxy-2-methylpyrimidin-4-yl)oxybenzonitrile]: the IC50 is above 1000 nM.

Regarding `Cc1nc(OCC2CCCCC2)cc(Oc2cc(C#N)ccc2-c2ccc(CCN)cc2)n1` [Compound 39, 4-[4-(2-aminoethyl)phenyl]-3-[6-(cyclohexylmethoxy)-2-methylpyrimidin-4-yl]oxybenzonitrile], the IC50 was above 1000 nM. The figure for `Cc1nc(Oc2cc(C#N)ccc2-c2ccc(CCN)cc2)cc(-c2nccs2)n1` [Compound 40, 4-[4-(2-aminoethyl)phenyl]-3-[2-methyl-6-(1,3-thiazol-2-yl)pyrimidin-4-yl]oxybenzonitrile] is above 1000 nM; for `Cc1nc(OCCC(C)C)cc(Oc2cc(C#N)ccc2-c2ccc(CCN)cc2)n1` [Compound 41, 4-[4-(2-aminoethyl)phenyl]-3-[2-methyl-6-(3-methylbutoxy)pyrimidin-4-yl]oxybenzonitrile] it is above 1000 nM; for `Cc1nc(OCCC(C)(C)C)cc(Oc2cc(C#N)ccc2-c2ccc(CCN)cc2)n1` [Compound 42, 4-[4-(2-aminoethyl)phenyl]-3-[6-(3,3-dimethylbutoxy)-2-methylpyrimidin-4-yl]oxybenzonitrile] it is above 1000 nM.

`Cc1nc(OCC2CCC2)cc(Oc2cc(C#N)ccc2-c2ccc(CCN)cc2)n1` [Compound 43, 4-[4-(2-aminoethyl)phenyl]-3-[6-(cyclobutylmethoxy)-2-methylpyrimidin-4-yl]oxybenzonitrile]: the IC50 is 10 to 1000 nM. As for `Cc1nc(OCC2CCCC2)cc(Oc2cc(C#N)ccc2-c2ccc(CCN)cc2)n1` [Compound 44, 4-[4-(2-aminoethyl)phenyl]-3-[6-(cyclopentylmethoxy)-2-methylpyrimidin-4-yl]oxybenzonitrile], the IC50 was above 1000 nM. With `Cc1nc(Oc2cc(C#N)ccc2-c2ccc(CCN)cc2)cc(OC2CCCC2)n1` [Compound 45, 4-[4-(2-aminoethyl)phenyl]-3-(6-cyclopentyloxy-2-methylpyrimidin-4-yl)oxybenzonitrile], the IC50 is 10 to 1000 nM. To `Cc1nc(Oc2cc(C#N)ccc2-c2ccc(CCN)cc2)cc(C2CCCC2)n1` [Compound 46, 4-[4-(2-aminoethyl)phenyl]-3-(6-cyclopentyl-2-methylpyrimidin-4-yl)oxybenzonitrile] belongs below 10 nM.

In the case of `Cc1nc(OCC(C)(C)C)cc(Oc2cc(C#N)ccc2-c2ccc(CCN)cc2)n1` [Compound 47, 4-[4-(2-Aminoethyl)phenyl]-3-[6-(2,2-dimethylpropoxy)-2-methylpyrimidin-4-yl]oxybenzonitrile], the IC50 is 10 to 1000 nM. To `COCCOc1cc(Oc2cc(C#N)ccc2-c2ccc(CCN)cc2)nc(C)n1` [Compound 48, 4-[4-(2-aminoethyl)phenyl]-3-[6-(2-methoxyethoxy)-2-methylpyrimidin-4-yl]oxybenzonitrile] belongs 10 to 1000 nM. The figure for `Cc1nc(OCC2(C)CC2)cc(Oc2cc(C#N)ccc2-c2ccc(CCN)cc2)n1` [Compound 49, 4-[4-(2-aminoethyl)phenyl]-3-[2-methyl-6-[(1-methylcyclopropyl)methoxy]pyrimidin-4-yl]oxybenzonitrile] is 10 to 1000 nM; for `N#Cc1ccc(-c2ccc(CCN)cc2)c(Oc2cnnc(N3CCOCC3)c2)c1` [Compound 50, 4-[4-(2-aminoethyl)phenyl]-3-(6-morpholin-4-ylpyridazin-4-yl)oxybenzonitrile] it is below 10 nM. The figure for `N#Cc1ccc(-c2ccc(C(O)CN)cc2)c(Oc2cnnc(N3CCOCC3)c2)c1` (stereo not shown) [Compound 51, 4-[4-(2-amino-1-hydroxyethyl)phenyl]-3-(6-morpholin-4-ylpyridazin-4-yl)oxybenzonitrile] is above 1000 nM; for `Cc1nc(Oc2cc(C#N)ccc2-c2ccc(C3CNC3)cc2)cc(N2CCOCC2)n1` [Compound 52, 4-[4-(azetidin-3-yl)phenyl]-3-(2-methyl-6-morpholin-4-ylpyrimidin-4-yl)oxybenzonitrile] it is 10 to 1000 nM.
